Reference: publication PMC7012919, “TRPM7 contributes to progressive nephropathy” (Scientific Reports, 2020)

Molecular target: TRPM7 (Rattus norvegicus, UniProt Q925B3)
Test: whole-cell patch clamp of endogenous TRPM7 currents in NRK-52E and NRK-49F cells ([…] complete block); IC50 from Fura-2 Mn2+ quench in NRK-52E cells
Assay type: cell-based

Chain of TRPM7 (Q925B3 whole entry): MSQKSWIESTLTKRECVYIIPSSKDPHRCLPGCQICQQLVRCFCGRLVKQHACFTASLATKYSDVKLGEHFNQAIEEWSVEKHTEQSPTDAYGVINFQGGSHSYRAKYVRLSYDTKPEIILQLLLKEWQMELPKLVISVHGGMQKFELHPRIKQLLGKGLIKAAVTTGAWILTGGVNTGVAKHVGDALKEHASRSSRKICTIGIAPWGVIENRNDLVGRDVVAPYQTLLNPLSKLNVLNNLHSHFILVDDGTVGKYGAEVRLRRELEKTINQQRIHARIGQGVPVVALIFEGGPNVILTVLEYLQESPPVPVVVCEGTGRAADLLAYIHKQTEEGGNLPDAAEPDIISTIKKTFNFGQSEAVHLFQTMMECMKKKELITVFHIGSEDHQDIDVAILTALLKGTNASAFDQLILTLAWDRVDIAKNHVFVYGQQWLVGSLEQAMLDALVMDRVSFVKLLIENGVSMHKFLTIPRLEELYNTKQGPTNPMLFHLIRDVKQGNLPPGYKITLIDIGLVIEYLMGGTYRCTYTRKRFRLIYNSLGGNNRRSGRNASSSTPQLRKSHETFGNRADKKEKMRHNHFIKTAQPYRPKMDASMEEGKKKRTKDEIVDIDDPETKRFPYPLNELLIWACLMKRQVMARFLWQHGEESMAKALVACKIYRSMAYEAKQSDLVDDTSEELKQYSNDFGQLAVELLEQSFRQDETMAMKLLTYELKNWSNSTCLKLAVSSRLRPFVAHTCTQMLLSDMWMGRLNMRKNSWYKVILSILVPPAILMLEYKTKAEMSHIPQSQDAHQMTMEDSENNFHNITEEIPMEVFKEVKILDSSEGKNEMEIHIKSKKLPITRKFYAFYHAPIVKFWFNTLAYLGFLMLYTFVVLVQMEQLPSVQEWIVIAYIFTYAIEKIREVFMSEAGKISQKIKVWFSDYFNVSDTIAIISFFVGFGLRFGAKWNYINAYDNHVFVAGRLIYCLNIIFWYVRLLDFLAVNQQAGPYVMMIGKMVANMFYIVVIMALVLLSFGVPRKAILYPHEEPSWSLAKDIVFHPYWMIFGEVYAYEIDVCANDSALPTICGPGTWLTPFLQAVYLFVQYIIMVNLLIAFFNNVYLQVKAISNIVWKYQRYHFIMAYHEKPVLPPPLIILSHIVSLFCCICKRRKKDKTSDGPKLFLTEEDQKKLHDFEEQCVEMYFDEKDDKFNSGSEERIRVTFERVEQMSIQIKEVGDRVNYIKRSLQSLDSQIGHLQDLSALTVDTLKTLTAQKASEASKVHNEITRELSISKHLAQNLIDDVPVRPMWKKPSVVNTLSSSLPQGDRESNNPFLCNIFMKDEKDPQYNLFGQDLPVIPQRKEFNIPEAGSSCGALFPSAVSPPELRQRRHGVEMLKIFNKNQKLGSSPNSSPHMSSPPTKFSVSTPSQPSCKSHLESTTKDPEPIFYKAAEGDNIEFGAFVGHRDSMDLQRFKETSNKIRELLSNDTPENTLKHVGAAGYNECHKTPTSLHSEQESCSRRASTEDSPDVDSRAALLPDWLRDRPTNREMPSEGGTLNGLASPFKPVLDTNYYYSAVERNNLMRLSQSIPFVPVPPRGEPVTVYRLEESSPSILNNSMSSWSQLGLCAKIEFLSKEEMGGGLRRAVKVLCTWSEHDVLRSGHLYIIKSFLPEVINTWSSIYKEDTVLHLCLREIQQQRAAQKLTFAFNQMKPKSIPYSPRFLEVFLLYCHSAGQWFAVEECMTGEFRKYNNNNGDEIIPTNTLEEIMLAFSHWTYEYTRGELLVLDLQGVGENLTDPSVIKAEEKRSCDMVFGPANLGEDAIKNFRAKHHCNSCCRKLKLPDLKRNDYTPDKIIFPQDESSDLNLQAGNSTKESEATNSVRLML

- IC50: 16 ± 3 µM
Compound: c1ccc2c(c1)CCC[C@H]2Nc1nc2ccccc2[nH]1 [NS8593]
